Experimental data reported in US20210169837A1, “COMPOSITION FOR REDUCING NEW-ONSET DIABETES” (MOCHIDA PHARMACEUTICAL CO., LTD., priority 2012, published 2021).

How the values were obtained:
[1] = tested on: Human fetal rhabdomyosarcoma cell line (RD cell, ATCC); assay: 2-3H-deoxyglucose uptake by differentiated skeletal muscle cells; type: cell-based; conditions: for Uptake of radioactivity (2-3H-deoxyglucose) per 1 μg of protein: statin = 30 μM simvastatin, EPA = 50 μM sodium eicosapentate
Protocol: (1) Human fetal rhabdomyosarcoma cell line (RD cell, ATCC) was inoculated in 24 well plate and cultured in a growth medium (10% fetal bovine serum (FCS), Dulbecco's modified Eagle medium (DMEM), low glucose, 1% nonessential amino acid) to confluency. (2) The cells were then cultivated in differentiation medium (2% horse serum (HS), Dulbecco's modified Eagle medium (DMEM), low glucose, 1% nonessential amino acid) for 3 to 5 days for differentiation into muscle cell.
(3) After the incubation, the medium was removed by aspiration, and the cells were incubated in an uptake buffer (140 mM NaCl, 5 mM KCl, 2.5 mM MgSO4, 20 mM HEPES, 1 mM CaCl2, pH=7.4) supplemented with 10 μM of 2-3H-deoxyglucose at 37° C. for 12 minutes. (4) After the incubation, the cells were washed 4 times with cold stop solution (PBS(−)supplemented with 10 mM glucose).
The PBS(−) contained 0.2 g of NaH2PO4.2H2O, 3.225 g of Na2HPO4.12H2O, and 8 g of NaCl in 1 L, and the pH was at 7.2 to 7.4.
(5) After the washing, 500 μL/well of aqueous solution of 0.4N sodium hydroxide was added, and the cells were lyzed by heating to 56° for 20 minutes. (6) 300 μL of the well content (cell lysate) was mixed with 4 mL of Atomlight (manufactured by PerkinElmer), and ^3H count was measured with a liquid scintillation counter. The well content (cell lysate) was also measured for its protein concentration to calculate the ^3H count per 1 μg of the protein.
FIG. 1 is the graph showing the uptake of radioactivity (y axis) in relation to the incubation time (x axis) for each group.

[2] = tested on: aged people of at least 66 years old administered with statin; conditions: compared to the case of pravastatin; cited from earlier work

CCC(C)(C)C(=O)O[C@H]1C[C@@H](C)C=C2C=C[C@H](C)[C@H](CC[C@@H]3C[C@@H](O)CC(=O)O3)[C@H]21 [Statin, simvastatin]
rate of decrease of radioactivity uptake ([1]; 48 hr of incubation, vs control group, 30 μM simvastatin (with or without 50 μM EPA)): about 73%
Uptake of radioactivity (2-3H-deoxyglucose) per 1 μg of protein ([1]; incubation time 1 hr): 563 dpm/μg protein
Uptake of radioactivity (2-3H-deoxyglucose) per 1 μg of protein ([1]; incubation time 6 hr): 489 dpm/μg protein
Uptake of radioactivity (2-3H-deoxyglucose) per 1 μg of protein ([1]; incubation time 24 hr): 343 dpm/μg protein
Uptake of radioactivity (2-3H-deoxyglucose) per 1 μg of protein ([1]; incubation time 48 hr): 170 dpm/μg protein

CC(C)c1c(C(=O)Nc2ccccc2)c(-c2ccccc2)c(-c2ccc(F)cc2)n1CC[C@@H](O)C[C@@H](O)CC(=O)O [atorvastatin]
risk of the incidence of the diabetes compared to pravastatin [2]: significantly increased

CC[C@H](C)C(=O)O[C@H]1C[C@@H](C)C=C2C=C[C@H](C)[C@H](CC[C@@H]3C[C@@H](O)CC(=O)O3)[C@H]21 [lovastatin]
risk of the incidence of the diabetes compared to pravastatin [2]: no significant difference

CC(C)c1nc(N(C)S(C)(=O)=O)nc(-c2ccc(F)cc2)c1/C=C/[C@@H](O)C[C@@H](O)CC(=O)O [rosuvastatin]
risk of the incidence of the diabetes compared to pravastatin [2]: significantly increased
